According to patent publication US20040116529A1, “Anticancer and chemopreventative agents and methods of use thereof” (priority 2001, published 2004):

Legend:
[1] = tested on: TRAMP (TRansgenic Adenocarcinoma of Mouse Prostate) mice; assay: Prostate carcinogenesis in TRAMP mice fed 1% DBM diet; format: in vivo
Text: In other words, development of premalignant prostatic intraepithelial (PIN) neoplasia and primary adenocarcinoma of the prostate of TRAMP mice is similar to the development of prostate cancer in humans. TRAMP mice are discussed in greater detail in U.S. Pat. No. 5,907,087, which is incorporated herein by reference.
(§1) Two groups of TRAMP mice were studied, where one is a control cohort and the other is the cohort fed DBM.

[2] = tested on: prostate specific antigen (PSA); assay: Extracellular PSA secreted by LNCaP cells exposed to DBM (ELISA analysis); format: cell-based, human; conditions: baseline about 700
Text: (§2) LNCaP cells cultured in the presence of androgens secrete prostate specific antigen (PSA) into the culture medium.

[3] = tested on: prostate specific antigen (PSA); assay: Intracellular PSA levels in LNCaP cells exposed to DBM (Western analysis); format: cell-based, human
Text: as §2

[4] = tested on: human prostate cancer cells; assay: Proliferation of human prostate cancer cells in vitro; format: cell-based
[5] = Serum DBM levels in TRAMP mice fed 1% DBM diet; format: in vivo, mouse
Text: as §1

O=C(CC(=O)c1ccccc1)c1ccccc1 [DBM, dibenzoylmethane]
cancer and high-grade prostatic intraepithelial neoplasia versus control cohort ([1]; 1% DBM diet, at 18 weeks): significantly less cancer and high-grade prostatic intraepithelial neoplasia | mice developing either adenocarcinoma or high grade PIN ([1]; diet of 1% DBM (weight/weight) in AIN-76A from six weeks of age, control cohort 6 of 10): 2 of 11 | Extracellular PSA ([2]; 25 micromolar DBM): ~150 nanograms per milliliter | Extracellular PSA ([2]; 50 micromolar DBM): ~100 nanograms per milliliter | Extracellular PSA ([2]; at micromolar DBM (concentration not given)): approximately 200 nanograms per milliliter | DBM concentration at which intracellular PSA is not readily detectable by Western analysis [3]: ≥ 10 µM | PSA levels ([3]; DBM at 10, 25 and 50 micromolar): dose-dependent down regulation | proliferation of human prostate cancer cells in vitro [4]: inhibit proliferation | serum levels of DBM ([5]; diet of 1% DBM from six weeks of age): 1000 nM | oral absorption from the gastrointestinal tract ([5]; oral DBM in diet): orally bioavailable
